Patent publication US8859625B2, “Methods to prepare penta-1,4-dien-3-ones and substituted cyclohexanones and derivatives with antitumoral and antiparasitic properties, the compounds and their uses” (Universidade Bandeirante de Sao Paulo-Academia, Paulista …, priority 2006, dated 2014)
“Also recorded” adds a separate entry of the source.

Legend:
[1] = system: Leishmania (isolate L.C.L.) promastigotes; experiment: Promastigote viability by MTT, L.C.L. isolate, Warren medium; format: cell-based; settings: for O.D. (optical density at 595/690 nm, average of duplicates): Warren medium
Experimental: (§1) Viability and/or cellular proliferative assays of promastigote and amastigote forms are also performed by the MTT (diphenyl tetrazolium 3-[4,5-dimethylthiazol-2il]2,5-bromide) method as described by Moreira, et al. (Moreira, M. E. C., Del Portillo, H. A., Milder, R. V., Balanco, J. M. F. and Barcinski, M. A. Heat shock induction of apoptosis in promastigotes of the unicellular organism Leishmania (Leishmania) amazonensis, J. Cell Physiol 167, 305-313, 1996), modified.
(§2) After incubation of parasitic forms with the compounds, as described above, for predetermined periods of time for each experiment (24, 48, 72 hours, etc.), an 1.0 mL aliquot of cellular suspension is collected from each culture tube or vial and transferred to microcentrifuge tubes, where they are centrifuged at 14.000 rpm for 3 minutes, the culture medium is aspirated and discharged. To the sedimented cells are add 200 μL of PBS. After that, the volume in PBS of the cellular suspensions is splitted into two wells (duplicates of 100 μL each) of a 96 well culture plate. To each duplicate, […] of MTT (5 mg/mL stock solution, […]) are added. After 1 h or 1 h 30 min, at a temperature of 22° C. (promastigotes) or 34° C. (amastigotes), 100 μL of 10% SDS are added to each well to interrupt the reaction, to lyse the cells and to dissolve the formazan crystals, resulting in an homogeneous blue solution appropriate to the absorbance measure by a spectrophotometer for culture microplates (3550 BIORAD model, Richmond, Calif.), at 595 nm as test wavelength and 690 nm as the reference wavelength.
(§3) The optical density (O.D.) values correspond to MTT enzymatic reduction by the metabolic active cells. Consequently, the O.D. is directly proportional to the number of viable cells of the cellular suspension. The progressive increase of O.D. indicates cellular proliferation. Results are expressed as arithmetic average of the optical density duplicates.
(§4) This experiment is developed in the Warren medium using an initial inoculum of 2.0×10^6/mL of the medium for the isolates. Cultures were at the day 7^h of passage and at the final exponential phase growth (day 6 of incubation). The results of viability determination for the Leishmania (isolate L.C.L.) promastigotes, incubated in Warren medium and in the presence of HB-1, are shown in the next Table and in FIG. 36. The culture final volume is of 5 mL and the MTT reactions are processed in 1 h and 30 minutes of incubation, beginning with 1.0 mL of culture.

B16F10 melanoma [2] = experiment: Histological analysis of mice bearing B16F10 dorsal melanoma; format: in vivo, C57BL/6J mice; settings: diluted in Miglyol 810, 1.15 μg/kg intraperitoneal
Excerpt: Animals are sacrificed by cervical displacement and the organ fragments were collected from the areas next to the tumoral region, stored in vials containing 10% formaldehyde, and fixed to be submitted to the routine histological processing (PARDI, P C; SIMÕES, M J, BINIVIGNAT, G. O—Ultrastructural study of the remodeling of the stroma of persistent-estrous rats—Rev. Chil. Cienc. Méd. Biol 3(2):61-65, 1993).
Melanoma B16F10 cell line are implanted at 5×10^4 cells per animal, the ideal dose to obtain the expected results and already proclaimed for this chosen type of animal.
All animals are treated after Day 14 of tumor implant and, as a result, the sequence of necropsis initiates at Day 15.
To visualize the results of HB-1 administration, animals are allocated into the following groups:
2—HB-1 group, treated with HB-1 diluted in Miglyol 810®, kept under ad libitum feed and water.
In both cases, the standard administered dose is of 1.15 μg/kg, via intraperitoneal as the elicited administration route.
Animals are sacrificed by cervical displacement and necropsis is performed with the material immediately collected and transferred to vials containing 10% formaldehyde and, after a 1 to 2 day period, submitted to a routine histological technique Hystology Technique Manual (Manual De Técnicas Para Histologia—Normal E Patológica: Castro De Tolosa, Rodrigues, Behmer E Freitas Neto, Editora Manole 2003).
After the fixation procedure to the thin plate, the hematoxylin/eosin staining method—Hystology Technique Manual (Manual (Manual De Técnicas Para Histologia—Normal E Patológica: Castro De Tolosa, Rodrigues, Behmer E Freitas Neto, Editora Manole 2003). is applied as it presents good results for tissue and cell morphologic evaluation, mainly to the components in each block.
After staining, the thin plates are mounted, then analysed by a ZEISS microscopy with a AXIOCAM-MRC3 trade mark digital camera, and the resulting pictures processed by a AXIOVISON REL 4.2 (Carl Zeiss Inc.) software, registered by a computer.

B16F10 melanoma [3] = experiment: Cell cycle phases by flow cytometry of melanoma dorsal tumors treated for 14 days; format: in vivo, C57BL/6J mice; settings: 15 mg/kg HB-1 diluted in Miglyol 810, intraperitoneal
Experimental: Determination of Cell Cycle Phases Through Flow Cytometry of Melanoma Dorsal Tumors Treated for 14 Days with the HB-1 Compound by the Intraperitoneal Route.
Aliquots of the tumoral cells suspensions (10^6 cells/mL) for the control group that received Miglyol 810® vehicle and of the animals treated with the HB-1 compound for 14 days by the intraperitoneal route were immediately frozen in citrate (2 mM), sucrose (25 mM), and 0.05% dimethyl sulfoxide (DMSO) buffer, kept in liquid nitrogen up to the moment of use. After sample thawing in an ice bath, the cells were incubated with 375 μL of 0.03 g/L trypsin (Sigma) for 10 minutes, at room temperature, and neutralized with 0.5 g/L trypsin inhibitor (Sigma), 0.1 g/L ribonuclease A (Sigma), and 1.2 g/L spermine (Sigma). The samples were analysed by a flow cytometer (Becton-Dickson) and the percentage of cells was evaluated for the different phases of the cell cycle, apoptosis level (Sub-G1), and DNA content in phase S, quiescent cells (G0/G1), and cells in premytosis (G2/M).

[4] = system: promastigotes of Leishmania (isolate D.C.L.); experiment: Promastigote viability by MTT, D.C.L. isolate, Warren medium; format: cell-based; settings: for O.D. (optical density at 595/690 nm wavelength): Warren medium
Experimental: as §1, §2, §3, §4
In the next Table and in FIG. 37 are shown the results of viability determination for the promastigotes of Leishmania (isolate D.C.L.) incubated in Warren medium in the presence of HB-1.

## COc1cc(C=CC(=O)C=Cc2ccc(O)c(OC)c2)ccc1O [HB-1, 1,5-Bis-(4-hydroxy-3-methoxy-phenyl)-penta-1,4-dien-3-one]
[1]; HB-1 5 μg/mL
  effect in words: partial inhibition of proliferation
[1]; HB-1 5 μg/mL, 24 hours
  O.D. (optical density at 595/690 nm, average of duplicates): 0.489
[1]; HB-1 5 μg/mL, 48 hours
  O.D. (optical density at 595/690 nm, average of duplicates): 0.452
[1]; HB-1 5 μg/mL, 72 hours
  O.D. (optical density at 595/690 nm, average of duplicates): 1.346
[1]; HB-1 5 μg/mL, 96 hours
  O.D. (optical density at 595/690 nm, average of duplicates): 1.834
[1]; HB-1 10 μg/mL
  effect in words: leishmaniostatic effect
[1]; HB-1 10 μg/mL, 24 hours
  O.D. (optical density at 595/690 nm, average of duplicates): 0.177
[1]; HB-1 10 μg/mL, 48 hours
  O.D. (optical density at 595/690 nm, average of duplicates): 0.153
[1]; HB-1 10 μg/mL, 72 hours
  O.D. (optical density at 595/690 nm, average of duplicates): 0.176
[1]; HB-1 10 μg/mL, 96 hours
  O.D. (optical density at 595/690 nm, average of duplicates): 0.187
[1]; HB-1 20 μg/mL
  effect in words: leishmanicide
[1]; HB-1 20 μg/mL, 24 hours
  O.D. (optical density at 595/690 nm, average of duplicates): 0.056
[1]; HB-1 20 μg/mL, 48 hours
  O.D. (optical density at 595/690 nm, average of duplicates): 0.014
[1]; HB-1 20 μg/mL, 72 hours
  O.D. (optical density at 595/690 nm, average of duplicates): 0.012
[1]; HB-1 20 μg/mL, 96 hours
  O.D. (optical density at 595/690 nm, average of duplicates): 0.012
B16F10 melanoma [2]; 14 day treatment
  leukocytic infiltrate in dorsal tumor: presence of a leukocytic infiltrate in the peri- and intratumoral portions
B16F10 melanoma [2]; compared to control group
  lung parenchyma alterations: No alterations of thickness or bronchium epithelium rupture
  metastatic lesions: no metastatic lesions were found; also recorded: presence of metastatic masses or nodules was not observed
B16F10 melanoma [3]
  tumoral cell population in the G0/G1 phase of the cell cycle: significantly reduces
[4]; HB-1 5 μg/mL, 24 hours
  O.D. (optical density at 595/690 nm wavelength): 0.299
[4]; HB-1 5 μg/mL, 48 hours
  O.D. (optical density at 595/690 nm wavelength): 0.682
[4]; HB-1 5 μg/mL, 72 hours
  O.D. (optical density at 595/690 nm wavelength): 0.785
[4]; HB-1 10 μg/mL, 24 hours
  O.D. (optical density at 595/690 nm wavelength): 0.083
[4]; HB-1 10 μg/mL, 48 hours
  O.D. (optical density at 595/690 nm wavelength): 0.059
[4]; HB-1 10 μg/mL, 72 hours
  O.D. (optical density at 595/690 nm wavelength): 0.017
[4]; HB-1 10 μg/mL, 96 hours
  O.D. (optical density at 595/690 nm wavelength): 0.016
[4]; HB-1 20 μg/mL, 24 hours
  O.D. (optical density at 595/690 nm wavelength): 0.025
[4]; HB-1 20 μg/mL, 48 hours
  O.D. (optical density at 595/690 nm wavelength): 0.012
[4]; HB-1 20 μg/mL, 72 hours
  O.D. (optical density at 595/690 nm wavelength): 0.016
[4]; HB-1 20 μg/mL, 96 hours
  O.D. (optical density at 595/690 nm wavelength): 0.013
[4]; HB-1 from 10 μg/mL
  effect in words: leishmanicide effect
